Test system: fundus of the stomach (gastric tone)
Assay: Gastric tone measured by an electronic barostat in conscious dogs
Format: in vivo
Conditions: mean maximal change in gastric volume on relaxation of the fundus; S.C. administration, 0.63 mg/kg; 1 hour observation period; constant pressure 6 mmHg; conscious female beagle dogs
Experimental: C.1. Gastric Tone Measured by an Electronic Barostat in Conscious Dogs Gastric tone cannot be measured by manometric methods. Therefore an electronic barostat was used. This allows the study of the physiological pattern and regulation of gastric tone in conscious dogs and the influence of test-compounds on this tone. The barostat consists of an air injection system which is connected by a double-lumen 14-French polyvinyl tube to an ultrathin flaccid polyethylene bag (maximal volume: ±700 ml). Variations in gastric tone were measured by recording changes in the volume of air within an intragastric bag, maintained at a constant pressure. The barostat maintains a constant pressure (preselected) within a flaccid air-filled bag introduced into the stomach, changing the volume of air within, the bag by an electronic feedback system. Thus, the barostat measures gastric motor activity (contraction or relaxation) as changes in intragastric volume (decrease or increase resp.) at a constant intragastric pressure. The barostat consists of a strain gauge linked by an electronic relay to an air injection-aspiration system. Both the strain gauge and the injection system are connected by means of double-lumen polyvinyl tube to an ultrathin polyethylene bag. […] Test compounds were screened, i.e. changes in gastric volume were measured, usually at 0.63 mg/kg. […]

## [1(R),[B-(3α,4α)]]-1-[1-[(3,4-dihydro-2H-1-benzopyran-2-yl)methyl]-3-methoxy-4-piperidinyl]-2(1H)pyrimidinone [Co. No. 2]
  Maximum change in volume: 9 mL
